Experiments:
Type in all cases: in vivo
[1] = system: surinam grass (Brachiaria decumbens); test: Test E pre-/postemergence: surinam grass; settings: Preemergence, scale 0 to 100
From the text: (§1) Seeds of plant species selected from corn (Zea mays), soybean (Glycine max), velvetleaf (Abutilon theophrasti), lambsquarters (Chenopodium album), poinsettia, wild (wild poinsettia, Euphorbia heterophylla), pigweed, palmer (palmer pigweed, Amaranthus palmeri), waterhemp (common waterhemp, Amaranthus rudis), smartweed (ladysthumb smartweed, Polygonum persicaria), surinam grass (Brachiaria decumbens), crabgrass, large (large crabgrass, Digitaria sanguinalis), crabgrass, Brazil (Brazilian crabgrass, Digitaria horizontalis), panicum, fall (fall panicum, Panicum dichotomiflorum), foxtail, giant (giant foxtail, Setaria faberii), foxtail, green (green foxtail, Setaria viridis), goosegrass (Eleusine indica), johnsongrass (Sorghum halepense), ragweed (common ragweed, Ambrosia elation), barnyardgrass (Echinochloa crus-galli), sandbur (southern sandbur, Cenchrus echinatus), arrowleaf sida (Sida rhombifolia), ryegrass, Italian (Italian ryegrass, Lolium multiflorum), dayflower, (VA) (Virginia dayflower, Commelina virginica), field bindweed (Convolvulus arvensis), cocklebur (common cocklebur, Xanthium strumarium), morningglory (Ipomoea coccinea), nightshade (eastern black nightshade, Solanum ptycanthum), kochia (Kochia scoparia), nutsedge, yellow (yellow nutsedge, Cyperus esculentus) and beggarticks (hairy beggarticks, Bidens pilosa) were planted into a silt loam soil and treated preemergence with test chemicals formulated in a non-phytotoxic solvent mixture which included a surfactant. At the same time, plants selected from these crop and weed species were planted in pots containing a growing medium comprising spaghnum peat moss, vermiculite, wetting agent and starter nutrients and treated with postemergence applications of some of the test chemicals formulated in the same manner. Plants ranged in height from 2 to 18 cm for postemergence treatments (1- to 4-leaf stage).
(§2) Treated plants and controls were maintained in a greenhouse for 14 to 21 days, after which time all species were compared to controls and visually evaluated. Plant response ratings, summarized in Table E, are based on a scale of 0 to 100 where 0 is no effect and 100 is complete control. A dash (-) response means no test result.

[2] = system: pigweed, palmer (palmer pigweed, Amaranthus palmeri); test: Test E pre-/postemergence: pigweed, palmer; settings: scale 0 to 100
From the text: as §1, §2

Oilseed Rape = test: Test C pre-/postemergence: oilseed rape
From the text: Seeds of plant species selected from blackgrass (Alopecurus myosuroides), bromegrass, downy (downy bromegrass, Bromus tectorum), foxtail, green (green foxtail, Setaria viridis), ryegrass, Italian (Italian ryegrass, Lolium multiflorum), winter wheat (Triticum aestivum), wild oat (Avena fatua), galium (catchweed bedstraw, Galium aparine), bermudagrass (Cynodon dactylon), surinam grass (Brachiaria decumbens), cocklebur (common cocklebur, Xanthium strumarium), corn (Zea mays), large crabgrass (Digitaria sanguinalis), woolly cupgrass (Eriochloa villosa), foxtail, giant (giant foxtail, Setaria faberii), goosegrass (Eleusine indica), johnsongrass (Sorghum halepense), kochia (Kochia scoparia), lambsquarters (Chenopodium album), morningglory (Ipomoea coccinea), nightshade (eastern black nightshade, Solanum ptycanthum), nutsedge, yellow (yellow nutsedge, Cyperus esculentus), pigweed (Amaranthus retroflexus), ragweed (common ragweed, Ambrosia elation), soybean (Glycine max), common (oilseed) sunflower (Helianthus annuus), Russian thistle (Salsola kali) and velvetleaf (Abutilon theophrasti) were planted into a blend of loam soil and sand and treated preemergence with test chemicals formulated in a non-phytotoxic solvent mixture which included a surfactant.
At the same time, plants selected from these crop and weed species and also barley (winter barley, Hordeum vulgare), canarygrass (Phalaris minor), chickweed (common chickweed, Stellaria media) windgrass (Apera spica-venti) and deadnettle (henbit deadnettle, Lamium amplexicaule) were planted in pots containing Redi-Earth® planting medium (Scotts Company, 14111 Scottslawn Road, Marysville, Ohio 43041) comprising spaghnum peat moss, vermiculite, wetting agent and starter nutrients and treated with postemergence applications of test chemicals formulated in the same manner. Plants ranged in height from 2 to 18 cm (1- to 4-leaf stage) for postemergence treatments.
as §2, with “13” for “14”, “15” for “21”, “C,” for “E,”

[3] = system: ryegrass, Italian (Italian ryegrass, Lolium multiflorum); test: Test F pre-/postemergence: ryegrass, Italian
From the text: (§3) Seeds of plant species selected from corn (Zea mays), soybean (Glycine max), velvetleaf (Abutilon theophrasti), lambsquarters (Chenopodium album), poinsettia, wild (wild poinsettia, Euphorbia heterophylla), pigweed, palmer (palmer pigweed, Amaranthus palmeri), waterhemp (common waterhemp, Amaranthus rudis), surinam grass (Brachiaria decumbens), crabgrass, Brazil (Brazilian crabgrass, Digitaria horizontalis), panicum, fall (fall panicum Panicum dichotomiflorum), crabgrass, large (large crabgrass, Digitaria sanguinalis), foxtail, giant (giant foxtail, Setaria faberii), foxtail, green (green foxtail Setaria viridis), goosegrass (Eleusine indica), ragweed (common ragweed, Ambrosia elatior), barnyardgrass (Echinochloa crus-galli), sandbur (southern sandbur, Cenchrus echinatus), arrowleaf sida (Sida rhombifolia), ryegrass, Italian (Italian ryegrass, Lolium multiflorum), dayflower, VA (Virginia (VA) dayflower, Commelina virginica), field bindweed (Convolvulus arvensis), cocklebur (common cocklebur, Xanthium strumarium), morningglory (Ipomoea coccinea), nightshade (eastern black nightshade, Solanum ptycanthum), kochia (Kochia scoparia), nutsedge, yellow (yellow nutsedge, Cyperus esculentus), johnsongrass (Sorghum halepense), smartweed (ladysthumb smartweed, Polygonum persicaria), and beggarticks (hairy beggarticks, Bidens pilosa), were planted into a silt loam soil and treated preemergence with test chemicals formulated in a non-phytotoxic solvent mixture which included a surfactant. At the same time, plants selected from these crop and weed species and also pigweed (Amaranthus retroflexus), waterhemp_RES1 (ALS/Triazine resistant common waterhemp, Amaranthus rudis) and waterhemp_RES2 (ALS/HPPD resistant common waterhemp, Amaranthus rudis) were planted in pots containing a planting medium comprising spaghnum peat moss, vermiculite, wetting agent and starter nutrients treated with postemergence applications of some of the test chemicals formulated in the same manner. Plants ranged in height from 2 to 18 cm for postemergence treatments (1- to 4-leaf stage).
as §2

[4] = system: crabgrass, Brazil (Brazilian crabgrass, Digitaria horizontalis); test: Test F pre-/postemergence: crabgrass, Brazil
From the text: as §3, §2

[5] = system: dayflower, VA (Virginia (VA) dayflower, Commelina virginica); test: Test F pre-/postemergence: dayflower, VA
From the text: as §3, §2

[6] = Postemergence, 31 g ai/ha, scale 0 to 100 (0 no effect, 100 complete control)
[7] = Preemergence, 250 g ai/ha, scale 0 to 100, 0 no effect, 100 complete control
[8] = Postemergence, 4 g ai/ha, scale 0 to 100
[9] = Postemergence, 8 g ai/ha, scale 0 to 100
[10] = Postemergence, 16 g ai/ha, scale 0 to 100
[11] = Postemergence, 31 g ai/ha, scale 0 to 100
[12] = Postemergence, 62 g ai/ha, scale 0 to 100
[13] = Preemergence, 4 g ai/ha, scale 0 to 100, 0 no effect, 100 complete control
[14] = Preemergence, 8 g ai/ha, scale 0 to 100, 0 no effect, 100 complete control
[15] = Preemergence, 16 g ai/ha, scale 0 to 100 (0 no effect, 100 complete control)
[16] = Preemergence, 31 g ai/ha, scale 0 to 100 (0 no effect, 100 complete control)
[17] = Preemergence, 62 g ai/ha, scale 0 to 100
[18] = Postemergence, 125 g ai/ha, scale 0 to 100
[19] = Preemergence, 125 g ai/ha, scale 0 to 100

Cc1nn(-c2ccc(F)cc2)nc1Cc1ccnc(C(F)(F)F)c1 [Compound 16, 4-[[2-(4-fluorophenyl)-5-methyl-2H-1,2,3-triazol-4-yl]methyl]-2-(trifluoromethyl)pyridine]
Plant response rating: Surinam Grass ([1]; 8 g ai/ha): 0 | Plant response rating: Surinam Grass ([1]; 16 g ai/ha): 0 | Plant response rating: Surinam Grass ([1]; 31 g ai/ha): 0 | Plant response rating: Surinam Grass ([1]; 62 g ai/ha): 30 | Plant response rating: Surinam Grass ([1]; 125 g ai/ha): 35 | Plant response rating: Pigweed, Palmer ([2]; Preemergence, 8 g ai/ha): 95 | Plant response rating: Pigweed, Palmer ([2]; Preemergence, 16 g ai/ha): 98 | Plant response rating: Pigweed, Palmer ([2]; Preemergence, 31 g ai/ha): 98 | Plant response rating: Pigweed, Palmer ([2]; Preemergence, 62 g ai/ha): 98 | Plant response rating: Pigweed, Palmer ([2]; Preemergence, 125 g ai/ha): 100

CCc1nn(-c2ccc(F)cc2)nc1Oc1ccnc(C(F)(F)F)c1 [Compound 166]
Plant response rating, Oilseed Rape (Oilseed Rape; [6]): 5 | Plant response rating, Oilseed Rape (Oilseed Rape; [7]): 100

Cc1nn(-c2ccc(C(F)(F)F)c(F)c2)nc1Cc1ccnc(C(F)(F)F)c1 [Compound 162]
Plant response rating, Ryegrass, Italian [3, 8]: 0 | Plant response rating, Ryegrass, Italian [3, 9]: 0 | Plant response rating, Ryegrass, Italian [3, 10]: 0 | Plant response rating, Ryegrass, Italian [3, 11]: 0 | Plant response rating, Ryegrass, Italian [3, 12]: 0 | Plant response rating, Ryegrass, Italian [3, 13]: 0 | Plant response rating, Ryegrass, Italian [3, 14]: 0 | Plant response rating, Ryegrass, Italian [3, 15]: 35 | Plant response rating, Ryegrass, Italian [3, 16]: 80 | Plant response rating, Crabgrass, Brazil [4, 8]: 15 | Plant response rating, Crabgrass, Brazil [4, 9]: 15 | Plant response rating, Crabgrass, Brazil [4, 10]: 15 | Plant response rating, Crabgrass, Brazil [4, 11]: 20 | Plant response rating, Crabgrass, Brazil [4, 12]: 30 | Plant response rating, Crabgrass, Brazil [4, 13]: 0 | Plant response rating, Crabgrass, Brazil [4, 14]: 100 | Plant response rating, Crabgrass, Brazil [4, 15]: 100 | Plant response rating, Crabgrass, Brazil [4, 16]: 100 | Plant response rating, Crabgrass, Brazil [4, 17]: 100 | Plant response rating, Oilseed Rape (Oilseed Rape; [7]): 100 | Plant response rating, Dayflower, VA [5, 8]: 5 | Plant response rating, Dayflower, VA [5, 9]: 15 | Plant response rating, Dayflower, VA [5, 10]: 20 | Plant response rating, Dayflower, VA [5, 11]: 20 | Plant response rating, Dayflower, VA [5, 12]: 25 | Plant response rating, Dayflower, VA [5, 13]: 0 | Plant response rating, Dayflower, VA [5, 14]: 35 | Plant response rating, Dayflower, VA [5, 15]: 35 | Plant response rating, Dayflower, VA [5, 16]: 35 | Plant response rating, Dayflower, VA [5, 17]: 65

Cc1nn(-c2ccc(F)c(F)c2)nc1Oc1ccnc(C(F)(F)F)c1 [Compound 145]
Plant response rating, Ryegrass, Italian [3, 9]: 5 | Plant response rating, Ryegrass, Italian [3, 10]: 10 | Plant response rating, Ryegrass, Italian [3, 11]: 20 | Plant response rating, Ryegrass, Italian [3, 12]: 30 | Plant response rating, Ryegrass, Italian [3, 18]: 40 | Plant response rating, Crabgrass, Brazil [4, 9]: 15 | Plant response rating, Crabgrass, Brazil [4, 10]: 25 | Plant response rating, Crabgrass, Brazil [4, 11]: 40 | Plant response rating, Crabgrass, Brazil [4, 12]: 40 | Plant response rating, Crabgrass, Brazil [4, 18]: 50 | Plant response rating, Dayflower, VA [5, 9]: 15 | Plant response rating, Dayflower, VA [5, 10]: 20 | Plant response rating, Dayflower, VA [5, 11]: 50 | Plant response rating, Dayflower, VA [5, 12]: 60 | Plant response rating, Dayflower, VA [5, 18]: 70

Cc1nn(-c2ccc(F)cc2)nc1Oc1ccnc(C(F)(F)F)c1 [Compound 129, 4-[[2-(4-fluorophenyl)-5-methyl-2H-1,2,3-triazol-4-yl]oxy]-2-(trifluoromethyl)pyridine]
Plant response rating: Surinam Grass ([1]; 8 g ai/ha): 0 | Plant response rating: Surinam Grass ([1]; 16 g ai/ha): 0 | Plant response rating: Surinam Grass ([1]; 31 g ai/ha): 15 | Plant response rating: Surinam Grass ([1]; 62 g ai/ha): 15 | Plant response rating: Surinam Grass ([1]; 125 g ai/ha): 60 | Plant response rating: Pigweed, Palmer ([2]; Preemergence, 8 g ai/ha): 30 | Plant response rating: Pigweed, Palmer ([2]; Preemergence, 16 g ai/ha): 80 | Plant response rating: Pigweed, Palmer ([2]; Preemergence, 31 g ai/ha): 100 | Plant response rating: Pigweed, Palmer ([2]; Preemergence, 62 g ai/ha): 100 | Plant response rating: Pigweed, Palmer ([2]; Preemergence, 125 g ai/ha): 100

CCCc1nn(-c2ccc(C(F)(F)F)c(F)c2)nc1Oc1ccnc(C(F)(F)F)c1 [Compound 185]
Plant response rating, Oilseed Rape (Oilseed Rape; [6]): 10 | Plant response rating, Oilseed Rape (Oilseed Rape; [7]): 100

Cc1nn(-c2ccc(C(F)(F)F)cc2)nc1Cc1ccnc(C(F)(F)F)c1 [Compound 47, 4-[[5-methyl-2-[4-(trifluoromethyl)phenyl]-2H-1,2,3-triazol-4-yl]methyl]-2-(trifluoromethyl)pyridine]
Plant response rating: Surinam Grass ([1]; 16 g ai/ha): 15 | Plant response rating: Surinam Grass ([1]; 31 g ai/ha): 20 | Plant response rating: Surinam Grass ([1]; 62 g ai/ha): 25 | Plant response rating: Surinam Grass ([1]; 125 g ai/ha): 40 | Plant response rating: Surinam Grass ([1]; 250 g ai/ha): 65 | Plant response rating: Pigweed, Palmer ([2]; Postemergence, 250 g ai/ha): 100 | Plant response rating: Pigweed, Palmer ([2]; Postemergence, 16 g ai/ha): 70 | Plant response rating: Pigweed, Palmer ([2]; Postemergence, 31 g ai/ha): 90 | Plant response rating: Pigweed, Palmer ([2]; Postemergence, 62 g ai/ha): 95 | Plant response rating: Pigweed, Palmer ([2]; Postemergence, 125 g ai/ha): 100 | Plant response rating: Pigweed, Palmer ([2]; Preemergence, 16 g ai/ha): 100 | Plant response rating: Pigweed, Palmer ([2]; Preemergence, 31 g ai/ha): 100 | Plant response rating: Pigweed, Palmer ([2]; Preemergence, 62 g ai/ha): 100 | Plant response rating: Pigweed, Palmer ([2]; Preemergence, 125 g ai/ha): 100 | Plant response rating: Pigweed, Palmer ([2]; Preemergence, 250 g ai/ha): 100

Fc1ccc(-n2nc(Cc3ccnc(C(F)(F)F)c3)c(OCC(F)(F)F)n2)cc1 [Compound 142]
Plant response rating, Ryegrass, Italian [3, 15]: 5 | Plant response rating, Ryegrass, Italian [3, 16]: 65 | Plant response rating, Ryegrass, Italian [3, 19]: 100 | Plant response rating, Dayflower, VA [5, 15]: 0 | Plant response rating, Dayflower, VA [5, 16]: 5 | Plant response rating, Dayflower, VA [5, 17]: 50 | Plant response rating, Dayflower, VA [5, 19]: 70

— patent publication US9302999B2, “Substituted triazoles as herbicides” (E. I. DU PONT DE NEMOURS AND COMPANY, priority 2012, dated 2016)
